Measurements taken from PubChem BioAssay (NCI).
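Method: 48-hour compound exposure of cells in 96-well plates, five concentrations, linear interpolation of endpoints. Here, GI50 denotes the concentration required for 50% inhibition of growth. At the TGI there is no net growth.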

Assays:
Assay in all cases: growth of human tumour cells (NCI), 48 h
786-0 renal = tested on: 786-0 renal
A498 renal = tested on: A498 renal
A549 NSCLC = tested on: A549 NSCLC
ACHN renal = tested on: ACHN renal
BT-549 breast = tested on: BT-549 breast
CAKI-1 renal = tested on: CAKI-1 renal
CCRF-CEM leukemia = tested on: CCRF-CEM leukemia
COLO 205 colon = tested on: COLO 205 colon
DU-145 prostate = tested on: DU-145 prostate
EKVX NSCLC = tested on: EKVX NSCLC
HCC-2998 colon = tested on: HCC-2998 colon
HCT-116 colon = tested on: HCT-116 colon
HCT-15 colon = tested on: HCT-15 colon
HL-60(TB) leukemia = tested on: HL-60(TB) leukemia
HOP-62 NSCLC = tested on: HOP-62 NSCLC
HOP-92 NSCLC = tested on: HOP-92 NSCLC
HS 578T breast = tested on: HS 578T breast
HT29 colon = tested on: HT29 colon
IGROV1 ovarian = tested on: IGROV1 ovarian
K-562 leukemia = tested on: K-562 leukemia
KM12 colon = tested on: KM12 colon
LOX IMVI melanoma = tested on: LOX IMVI melanoma
M14 melanoma = tested on: M14 melanoma
MALME-3M melanoma = tested on: MALME-3M melanoma
MCF7 breast = tested on: MCF7 breast
MDA-MB-231 breast = tested on: MDA-MB-231 breast
MDA-MB-435 = tested on: MDA-MB-435
MOLT-4 leukemia = tested on: MOLT-4 leukemia
NCI-H226 lung = tested on: NCI-H226 lung
NCI-H23 lung = tested on: NCI-H23 lung
NCI-H460 lung = tested on: NCI-H460 lung
NCI-H522 lung = tested on: NCI-H522 lung
NCI/ADR-RES ovarian = tested on: NCI/ADR-RES ovarian
OVCAR-3 ovarian = tested on: OVCAR-3 ovarian
OVCAR-4 ovarian = tested on: OVCAR-4 ovarian
OVCAR-5 ovarian = tested on: OVCAR-5 ovarian
OVCAR-8 ovarian = tested on: OVCAR-8 ovarian
PC-3 prostate = tested on: PC-3 prostate
RPMI-8226 leukemia = tested on: RPMI-8226 leukemia
SF-268 CNS = tested on: SF-268 CNS
SF-295 CNS = tested on: SF-295 CNS
SF-539 CNS = tested on: SF-539 CNS
SK-MEL-2 melanoma = tested on: SK-MEL-2 melanoma
SK-MEL-28 melanoma = tested on: SK-MEL-28 melanoma
SK-MEL-5 melanoma = tested on: SK-MEL-5 melanoma
SK-OV-3 ovarian = tested on: SK-OV-3 ovarian
SN12C renal = tested on: SN12C renal
SNB-19 CNS = tested on: SNB-19 CNS
SNB-75 CNS = tested on: SNB-75 CNS
SR leukemia = tested on: SR leukemia
SW-620 colon = tested on: SW-620 colon
T-47D breast = tested on: T-47D breast
TK-10 renal = tested on: TK-10 renal
U251 CNS = tested on: U251 CNS
UACC-257 melanoma = tested on: UACC-257 melanoma
UACC-62 melanoma = tested on: UACC-62 melanoma
UO-31 renal = tested on: UO-31 renal

## N#Cc1cnc(=O)n(C2CC(O)C(CO)O2)c1 (centres undefined)
786-0 renal
  GI50: > 100 µM
  TGI: > 100 µM
A498 renal
  GI50: 17.5 µM
  TGI: 82 µM
A549 NSCLC
  GI50: > 100 µM
  TGI: > 100 µM
ACHN renal
  GI50: > 100 µM
  TGI: > 100 µM
BT-549 breast
  GI50: > 100 µM
  TGI: > 100 µM
CAKI-1 renal
  GI50: > 100 µM
  TGI: > 100 µM
CCRF-CEM leukemia
  GI50: > 100 µM
  TGI: > 100 µM
COLO 205 colon
  GI50: > 100 µM
  TGI: > 100 µM
DU-145 prostate
  GI50: > 100 µM
  TGI: > 100 µM
EKVX NSCLC
  GI50: > 100 µM
  TGI: > 100 µM
HCC-2998 colon
  GI50: > 100 µM
  TGI: > 100 µM
HCT-116 colon
  GI50: > 100 µM
  TGI: > 100 µM
HCT-15 colon
  GI50: > 100 µM
  TGI: > 100 µM
HL-60(TB) leukemia
  GI50: > 100 µM
  TGI: > 100 µM
HOP-62 NSCLC
  GI50: > 100 µM
  TGI: > 100 µM
HOP-92 NSCLC
  GI50: > 100 µM
  TGI: > 100 µM
HS 578T breast
  GI50: > 100 µM
  TGI: > 100 µM
HT29 colon
  GI50: > 100 µM
  TGI: > 100 µM
IGROV1 ovarian
  GI50: > 100 µM
  TGI: > 100 µM
K-562 leukemia
  GI50: 93.1 µM
  TGI: > 100 µM
KM12 colon
  GI50: > 100 µM
  TGI: > 100 µM
LOX IMVI melanoma
  GI50: > 100 µM
  TGI: > 100 µM
M14 melanoma
  GI50: > 100 µM
  TGI: > 100 µM
MALME-3M melanoma
  GI50: > 100 µM
  TGI: > 100 µM
MCF7 breast
  GI50: > 100 µM
  TGI: > 100 µM
MDA-MB-231 breast
  GI50: > 100 µM
  TGI: > 100 µM
MDA-MB-435
  GI50: > 100 µM
  TGI: > 100 µM
MOLT-4 leukemia
  GI50: > 100 µM
  TGI: > 100 µM
NCI-H226 lung
  GI50: > 100 µM
  TGI: > 100 µM
NCI-H23 lung
  GI50: > 100 µM
  TGI: > 100 µM
NCI-H460 lung
  GI50: > 100 µM
  TGI: > 100 µM
NCI-H522 lung
  GI50: > 100 µM
  TGI: > 100 µM
NCI/ADR-RES ovarian
  GI50: > 100 µM
  TGI: > 100 µM
OVCAR-3 ovarian
  GI50: > 100 µM
  TGI: > 100 µM
OVCAR-4 ovarian
  GI50: > 100 µM
  TGI: > 100 µM
OVCAR-5 ovarian
  GI50: > 100 µM
  TGI: > 100 µM
OVCAR-8 ovarian
  GI50: > 100 µM
  TGI: > 100 µM
PC-3 prostate
  GI50: > 100 µM
  TGI: > 100 µM
RPMI-8226 leukemia
  GI50: > 100 µM
  TGI: > 100 µM
SF-268 CNS
  GI50: > 100 µM
  TGI: > 100 µM
SF-295 CNS
  GI50: > 100 µM
  TGI: > 100 µM
SF-539 CNS
  GI50: > 100 µM
  TGI: > 100 µM
SK-MEL-2 melanoma
  GI50: > 100 µM
  TGI: > 100 µM
SK-MEL-28 melanoma
  GI50: > 100 µM
  TGI: > 100 µM
SK-MEL-5 melanoma
  GI50: > 100 µM
  TGI: > 100 µM
SK-OV-3 ovarian
  GI50: > 100 µM
  TGI: > 100 µM
SN12C renal
  GI50: > 100 µM
  TGI: > 100 µM
SNB-19 CNS
  GI50: > 100 µM
  TGI: > 100 µM
SNB-75 CNS
  GI50: 44.1 µM
  TGI: > 100 µM
SR leukemia
  GI50: > 100 µM
  TGI: > 100 µM
SW-620 colon
  GI50: > 100 µM
  TGI: > 100 µM
T-47D breast
  GI50: > 100 µM
  TGI: > 100 µM
TK-10 renal
  GI50: > 100 µM
  TGI: > 100 µM
U251 CNS
  GI50: > 100 µM
  TGI: > 100 µM
UACC-257 melanoma
  GI50: > 100 µM
  TGI: > 100 µM
UACC-62 melanoma
  GI50: > 100 µM
  TGI: > 100 µM
UO-31 renal
  GI50: 51.6 µM
  TGI: > 100 µM
